Where a SMILES comes first, the peptide text is derived from it. Where no end group is shown, it is not given here.
Tested on: HL-60 cells differentiated into the neutrophil-like cells
Experiment: β-hexosaminidase-secreting activity of neutrophil-like differentiated HL-60 cells
Format: cell-based, human
Conditions: neutrophil-like differentiated HL-60 cells; for EC50: Table 1, read-out: EC50 (μM), β-hexosaminidase-secreting activity; for Activity (β-hexosaminidase-secreting activity class): lowest concentration class at which secretion was confirmed
Source text: (1) Culture of Cell and Differentiation Into Neutrophil-like Cell
In this time, the cells were subcultured at a cell density of 1.0×10^5 cells/ml to 1.5×10^6 cells/ml, the number of cells was counted using a microscope, and the state of the cells was also confirmed.
The HL-60 cells were differentiated into neutrophil-like cells by setting the cell density in the flask to about 1.0×10^6 cells/ml, adding dibutylyl-cAMP (db-cAMP) as a differentiation-inducing agent so as to have a final concentration of 500 μM, and incubating the cells in the presence of CO2 at 37° C. for 3 days.
(2) Stimulation of Cell and Measurement of β-Hexosaminidase-secreting Activity
The cells were collected by centrifuging the suspension of the differentiated HL-60 cells (1,000 rpm, 5 minutes, 4° C.). After that, the following operation was repeated three times to wash the cells: Hepes buffered Hank's solution (HBHS) containing ice-cooled 0.1% BSA (1.2 mM CaCl2.2H2O, 5.4 mM KCl, 0.44 mM KH2PO4, 0.49 mM MgCl2.6H2O, 0.41 mM MgSO4.7H2O, 136.9 mM NaCl, 0.34 mM Na2HPO4, 10 mM Hepes, 4.2 mM NaHCO3, 5.5 mM D-glucose, pH 7.4) was added to the cells; the mixture was suspended by inversion; and the mixture was centrifuged again (1,000 rpm, 5 minutes, 4° C.). Subsequently, HBHS was added so that the mixture has a cell density of 5.6×10^6 cells/ml and suspended. Then, DNase I and cytochalasin B were each added so as to have a final concentration of 5 μg/ml, and the cell suspension was dispensed in an amount of 90 μl (5×10^5 cells) on ice. […] After the cell stimulation for 10 minutes, 100 μl of an ice-cooled stop solution (25 mM Tris, 123 mM NaCl, 2.7 mM KCl, pH 7.4) were added, and immediately, the mixture was centrifuged (5,000 rpm, 1 minute, 4° C.). 200 μl of the obtained supernatant were transferred to a new tube.
The amount of β-hexosaminidase released in the supernatant of the reaction solution was measured by an enzyme reaction using p-nitrophenyl-N-acetyl-μ-D-glucosaminide as a substrate (Non-patent Document 12). That is, the supernatant of the reaction solution was dispensed in an amount of 90 μl to a 96-well plate. 60 μl of a substrate solution (10 mM p-nitrophenyl-N-acetyl-μ-D-glucosaminide, 40 mM citrate, 70 mM Na2HPO4, pH 4.5) were added to each well, followed by incubation at 37° C. for 1 hour. After the reaction, 100 μl of a stop solution (0.4 M glycine, pH 10.7) were added to each well and a color of the released p-nitrophenol was developed. The color development was measured with a plate reader at adsorption at 405 nm (reference: 492 nm). The all amount of β-hexosaminidase contained in the cells was quantified by treating the cells with Triton X-100 having a final concentration of 0.05%. In addition, the amount of β-hexosaminidase secreted by stimulation of 10 μM fMLP was also measured, and the ratio of the secretion amount by stimulation with each peptide to the above sectretion amount by stimulation with fMLP.

044 (MAAPAVSGLSRQVRCFSTSVVRPF) [compound 044]
EC50: > 30 µM
Activity (β-hexosaminidase-secreting activity class): ● (a peptide in which the β-hexosaminidase-secreting activity was confirmed at a concentration of 10 μM or less)

CC[C@H](C)[C@H](NC(=O)[C@H](CC(C)C)NC(=O)[C@@H](N)CCSC)C(=O)N1CCC[C@H]1C(=O)N[C@@H](Cc1ccccc1)C(=O)N[C@@H](CO)C(=O)N[C@@H](CCSC)C(=O)N[C@@H](CCCCN)C(=O)N[C@@H](CC(N)=O)C(=O)N[C@@H](CS)C(=O)N[C@@H](Cc1ccccc1)C(=O)N[C@@H](CCC(N)=O)C(=O)N[C@@H](CC(C)C)C(=O)N[C@@H](CC(C)C)C(=O)N[C@@H](CS)C(=O)N[C@@H](CC(N)=O)C(=O)N[C@@H](CS)C(=O)N[C@@H](CCC(N)=O)C(=O)N[C@H](C(=O)N1CCC[C@H]1C(=O)N[C@@H](C)C(=O)N[C@@H](C)C(=O)NCC(=O)N[C@@H](Cc1ccccc1)C(=O)N[C@@H](CCCCN)C(=O)O)C(C)C [compound 030] (H-MLIPFSMKNCFQLLCNCQVPAAGFK-OH; N-terminus and C-terminus assumed)
EC50: 1 µM
Activity (β-hexosaminidase-secreting activity class): ∘ (a peptide in which the β-hexosaminidase-secreting activity was confirmed at a concentration of 1 μM or less)

MSVLTPLLLRGLTGSARRLPVPRAK [compound 007]
EC50: 8 µM
Activity (β-hexosaminidase-secreting activity class): ∘ (a peptide in which the β-hexosaminidase-secreting activity was confirmed at a concentration of 1 μM or less)

045 (MAAALLARASGPARRALCPRAWRQ) [compound 045]
EC50: > 30 µM
Activity (β-hexosaminidase-secreting activity class): ● (a peptide in which the β-hexosaminidase-secreting activity was confirmed at a concentration of 10 μM or less)

010 (MLGQSIRRFTTSVVRR) [compound 010]
EC50: > 40 µM
Activity (β-hexosaminidase-secreting activity class): ● (a peptide in which the β-hexosaminidase-secreting activity was confirmed at a concentration of 10 μM or less)

MLRLPTVFRQMRPVSRVLAPHLTRAY [compound 024]
EC50: 1.1 µM
Activity (β-hexosaminidase-secreting activity class): ⊚ (a peptide in which the β-hexosaminidase-secreting activity was confirmed at a concentration of 300 nM or less)

005 (MASRLLRGAGTLAAQALR) [compound 005]
Activity (β-hexosaminidase-secreting activity class): ▴ (a peptide in which the β-hexosaminidase-secreting activity was confirmed at a concentration of 100 μM or less)

006 (MGGLWRPGWRCVPFCGWRWI) [compound 006]
Activity (β-hexosaminidase-secreting activity class): ▴ x

MALRAKAEVCMAVPWLSLQRAQAL [compound 049]
EC50: 2 µM
Activity (β-hexosaminidase-secreting activity class): ● (a peptide in which the β-hexosaminidase-secreting activity was confirmed at a concentration of 10 μM or less)

008 (MLGQSIRRFTTSVVR) [compound 008]
EC50: > 100 µM
Activity (β-hexosaminidase-secreting activity class): ▴ (a peptide in which the β-hexosaminidase-secreting activity was confirmed at a concentration of 100 μM or less)

MQALRVSQALIRSFSSTARNR [compound 011]
EC50: 1.7 µM
Activity (β-hexosaminidase-secreting activity class): ⊚ (a peptide in which the β-hexosaminidase-secreting activity was confirmed at a concentration of 300 nM or less)

CC[C@H](C)[C@H](NC(=O)[C@H](CS)NC(=O)[C@H](CC(C)C)NC(=O)[C@H](CCC(N)=O)NC(=O)[C@@H]1CCCN1C(=O)[C@H](CO)NC(=O)[C@H](Cc1ccccc1)NC(=O)[C@H](Cc1c[nH]cn1)NC(=O)[C@H](C)NC(=O)[C@H](CCCNC(=N)N)NC(=O)[C@H](CC(C)C)NC(=O)[C@H](CS)NC(=O)[C@H](Cc1c[nH]cn1)NC(=O)[C@H](CCCNC(=N)N)NC(=O)CNC(=O)[C@@H](NC(=O)[C@H](Cc1c[nH]cn1)NC(=O)[C@H](CCCNC(=N)N)NC(=O)[C@H](CC(C)C)NC(=O)[C@H](CC(C)C)NC(=O)[C@H](CC(C)C)NC(=O)[C@H](C)NC(=O)[C@H](C)NC(=O)[C@@H](N)CCSC)C(C)C)C(=O)N[C@@H](CCCNC(=N)N)C(=O)N[C@@H](CC(N)=O)C(=O)N[C@@H](C)C(=O)N[C@H](C(=O)N1CCC[C@H]1C(=O)N[C@@H](CC(C)C)C(=O)O)C(C)C [compound 023] (H-MAALLLRHVGRHCLRAHFSPQLCIRNAVPL-OH; N-terminus and C-terminus assumed)
EC50: 0.3 µM
Activity (β-hexosaminidase-secreting activity class): ⊚ (a peptide in which the β-hexosaminidase-secreting activity was confirmed at a concentration of 300 nM or less)

MLWNLLALHQIGQRTISTASHRH [compound 019]
EC50: 0.23 µM
Activity (β-hexosaminidase-secreting activity class): ⊚ (a peptide in which the β-hexosaminidase-secreting activity was confirmed at a concentration of 300 nM or less)

013 (MALPLRPLTRGL) [compound 013]
EC50: > 30 µM
Activity (β-hexosaminidase-secreting activity class): ● (a peptide in which the β-hexosaminidase-secreting activity was confirmed at a concentration of 10 μM or less)

027 (MQRAVSVVARLGFRLQAFPPALCRPLSC) [compound 027]
EC50: > 30 µM
Activity (β-hexosaminidase-secreting activity class): ● (a peptide in which the β-hexosaminidase-secreting activity was confirmed at a concentration of 10 μM or less)

MKLLTRAGSFSRFY [compound 040]
EC50: 2 µM
Activity (β-hexosaminidase-secreting activity class): ⊚ (a peptide in which the β-hexosaminidase-secreting activity was confirmed at a concentration of 300 nM or less)

002 (MASRLLRGAGTLAAQALRARGPSGAAAMR) [compound 002]
Activity (β-hexosaminidase-secreting activity class): ▴ (a peptide in which the β-hexosaminidase-secreting activity was confirmed at a concentration of 100 μM or less)

MFPLVKSALNRLQVRSIQQTMARQ [compound 015]
EC50: 0.38 µM
Activity (β-hexosaminidase-secreting activity class): ⊚ (a peptide in which the β-hexosaminidase-secreting activity was confirmed at a concentration of 300 nM or less)

MSVLTPLLLRGLTGSARRLPVPRAKIHSLPPEGK [compound 033]
EC50: 6 µM
Activity (β-hexosaminidase-secreting activity class): ∘ (a peptide in which the β-hexosaminidase-secreting activity was confirmed at a concentration of 1 μM or less)

MFPLVKSALNRLQVRSIQQTMARQSHQKRT [compound 031]
EC50: 0.2 µM
Activity (β-hexosaminidase-secreting activity class): ⊚ (a peptide in which the β-hexosaminidase-secreting activity was confirmed at a concentration of 300 nM or less)

MASRLLRGAGTLAAQALRARGPSGAAAMRSM [compound 001]
EC50: 23 µM
Activity (β-hexosaminidase-secreting activity class): ● (a peptide in which the β-hexosaminidase-secreting activity was confirmed at a concentration of 10 μM or less)

003 (MASRLLRGAGTLAAQALRAR) [compound 003]
Activity (β-hexosaminidase-secreting activity class): ▴ (a peptide in which the β-hexosaminidase-secreting activity was confirmed at a concentration of 100 μM or less)

MLRNLLALRQIGQRTISTASRRH [compound 012]
EC50: 0.78 µM
Activity (β-hexosaminidase-secreting activity class): ∘ (a peptide in which the β-hexosaminidase-secreting activity was confirmed at a concentration of 1 μM or less)

MFPLARNALSSLKIQSILQSMARH [compound 048]
EC50: 0.1 µM
Activity (β-hexosaminidase-secreting activity class): ⊚ (a peptide in which the β-hexosaminidase-secreting activity was confirmed at a concentration of 300 nM or less)

MLATRVFSLVGKRAISTSVCVR [compound 018]
EC50: 6.1 µM
Activity (β-hexosaminidase-secreting activity class): ∘ (a peptide in which the β-hexosaminidase-secreting activity was confirmed at a concentration of 1 μM or less)

MALLTAAARLLGTKNASCLVLAARHAS [compound 050]
EC50: 7 µM
Activity (β-hexosaminidase-secreting activity class): ● (a peptide in which the β-hexosaminidase-secreting activity was confirmed at a concentration of 10 μM or less)

047 (MLSALARPVSAALRRSFSTSAQNN) [compound 047]
EC50: > 20 µM
Activity (β-hexosaminidase-secreting activity class): ● (a peptide in which the β-hexosaminidase-secreting activity was confirmed at a concentration of 10 μM or less)

021 (MAIQFRSLFPLALPGMLALLGWWWFFSRK) [compound 021]
Activity (β-hexosaminidase-secreting activity class): ● (a peptide in which the β-hexosaminidase-secreting activity was confirmed at a concentration of 10 μM or less)

017 (FTTFLTPAAYVLGNLKQFRRN) [compound 017]
EC50: > 40 µM
Activity (β-hexosaminidase-secreting activity class): ▴ (a peptide in which the β-hexosaminidase-secreting activity was confirmed at a concentration of 100 μM or less)
